Assay results taken from PubChem BioAssay AID1963436 (Molecular Pharmacology Branch, DTP, NCI, 2024).

Tested on: OVCAR-5 complex spheroid (HUVEC/MSC), viability % T/C
Assay: Anticancer human tumor OVCAR-5 cell line growth inhibition [Asc];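 also: spheroids exposed to agents for 7 days before readout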;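 as to viability, T/C: 100% = DMSO vehicle-treated wells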
Conditions: for IC50: curve of first compound; for viability, T/C: stronger effect = lower value
Method in brief: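 Tumor cells were grown as complex spheroids with human endothelial cells (HUVEC) and human mesenchymal stem cells as stroma. Agents were tested alone and in combination, in half-log steps down from the clinical Cmax, or from 10 microM where Cmax was unknown.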

[1] = second compound 0.1 µM, first compound 0.00316 µM
[2] = second compound 0.1 µM, first compound 0.01 µM
[3] = second compound 0.1 µM, first compound 0.0316 µM
[4] = second compound 0.1 µM, first compound 0.1 µM
[5] = second compound 0.1 µM, first compound 0.316 µM
[6] = second compound 0.1 µM, first compound 1 µM
[7] = second compound 0.316 µM, first compound 0.00316 µM
[8] = second compound 0.316 µM, first compound 0.01 µM
[9] = second compound 0.316 µM, first compound 0.0316 µM
[10] = second compound 0.316 µM, first compound 0.1 µM
[11] = second compound 0.316 µM, first compound 0.316 µM
[12] = second compound 0.316 µM, first compound 1 µM
[13] = second compound 1 µM, first compound 0.00316 µM
[14] = second compound 1 µM, first compound 0.01 µM
[15] = second compound 1 µM, first compound 0.0316 µM
[16] = second compound 1 µM, first compound 0.1 µM
[17] = second compound 1 µM, first compound 0.316 µM
[18] = second compound 1 µM, first compound 1 µM
[19] = second compound 3.16 µM, first compound 0.00316 µM
[20] = second compound 3.16 µM, first compound 0.01 µM
[21] = second compound 3.16 µM, first compound 0.0316 µM
[22] = second compound 3.16 µM, first compound 0.1 µM
[23] = second compound 3.16 µM, first compound 0.316 µM
[24] = second compound 3.16 µM, first compound 1 µM
[25] = second compound 10 µM, first compound 0.00316 µM
[26] = second compound 10 µM, first compound 0.01 µM
[27] = second compound 10 µM, first compound 0.0316 µM
[28] = second compound 10 µM, first compound 0.1 µM
[29] = second compound 10 µM, first compound 0.316 µM
[30] = second compound 10 µM, first compound 1 µM

| SMILES | IC50 (second compound 0.1 µM) [nM] | IC50 (second compound 0.316 µM) [nM] | IC50 (second compound 1 µM) [nM] | IC50 (second compound 3.16 µM) [nM] | IC50 (second compound 10 µM) [nM] | viability, T/C [1] [%] | viability, T/C [2] [%] | viability, T/C [3] [%] | viability, T/C [4] [%] | viability, T/C [5] [%] | viability, T/C [6] [%] | viability, T/C [7] [%] | viability, T/C [9] [%] | viability, T/C [10] [%] | viability, T/C [15] [%] | viability, T/C [16] [%] | viability, T/C [21] [%] | viability, T/C [22] [%] | viability, T/C [27] [%] | viability, T/C [28] [%] | further results |
| --- | --- | --- | --- | --- | --- | --- | --- | --- | --- | --- | --- | --- | --- | --- | --- | --- | --- | --- | --- | --- | --- |
| CCN1CCN(Cc2ccc(Nc3ncc(F)c(-c4cc(F)c5nc(C)n(C(C)C)c5c4)n3)nc2)CC1 + Cc1c(S(C)(=O)=O)c(-c2cc(F)cc(N3CCN(c4ccc(NS(=O)(=O)c5ccc(NC(CCN6CCC(C(=O)OCCCP(=O)(O)O)CC6)CSc6ccccc6)c(S(=O)(=O)C(F)(F)F)c5)cc4)CC3)c2)c(-c2ccc(Cl)cc2)n1C(C)C | > 1000 | > 1000 | > 1000 | > 1000 | > 1000 | 94.7 | 83.5 | 66 | 61.5 | 69.6 | 56.1 | 79.4 | 68.6 | 56.1 | 63.5 | 55 | 63.9 | 48.6 | 81.5 | 47 | viability, T/C [8]: 74.1%; viability, T/C [11]: 61.8%; viability, T/C [12]: 57%; viability, T/C [13]: 80.1%; viability, T/C [14]: 80.4%; viability, T/C [17]: 58.3%; viability, T/C [18]: 50.8%; viability, T/C [19]: 77%; viability, T/C [20]: 72.9%; viability, T/C [23]: 58.4%; viability, T/C [24]: 47.9%; viability, T/C [25]: 107%; viability, T/C [26]: 97.7%; viability, T/C [29]: 54.3%; viability, T/C [30]: 49.1% |
| Cn1ncnc1[C@H]1c2n[nH]c(=O)c3cc(F)cc(c23)N[C@@H]1c1ccc(F)cc1 + Cc1c(S(C)(=O)=O)c(-c2cc(F)cc(N3CCN(c4ccc(NS(=O)(=O)c5ccc(NC(CCN6CCC(C(=O)OCCCP(=O)(O)O)CC6)CSc6ccccc6)c(S(=O)(=O)C(F)(F)F)c5)cc4)CC3)c2)c(-c2ccc(Cl)cc2)n1C(C)C | > 100 | > 100 | > 100 | > 100 | > 100 | 100 | 82.9 | 86 | 91.1 | – | – | 97 | 89.1 | 74.2 | 76.5 | 89.2 | 87.9 | 76.9 | 97.9 | 102 | viability, T/C (second compound 0.1 µM, first compound 0.000316 µM): 99%; viability, T/C (second compound 0.1 µM, first compound 0.001 µM): 101%; viability, T/C (second compound 0.316 µM, first compound 0.000316 µM): 96.3%; viability, T/C (second compound 0.316 µM, first compound 0.001 µM): 95%; viability, T/C [8]: 89.7%; viability, T/C (second compound 1 µM, first compound 0.000316 µM): 96.7%; viability, T/C (second compound 1 µM, first compound 0.001 µM): 110%; viability, T/C [13]: 100%; viability, T/C [14]: 91.7%; viability, T/C (second compound 3.16 µM, first compound 0.000316 µM): 88.1%; viability, T/C (second compound 3.16 µM, first compound 0.001 µM): 90.9%; viability, T/C [19]: 91.2%; viability, T/C [20]: 70.1%; viability, T/C (second compound 10 µM, first compound 0.000316 µM): 117%; viability, T/C (second compound 10 µM, first compound 0.001 µM): 138%; viability, T/C [25]: 133%; viability, T/C [26]: 110% |
| O=C(c1cc(Cc2n[nH]c(=O)c3ccccc23)ccc1F)N1CCN(C(=O)C2CC2)CC1 + Cc1c(S(C)(=O)=O)c(-c2cc(F)cc(N3CCN(c4ccc(NS(=O)(=O)c5ccc(NC(CCN6CCC(C(=O)OCCCP(=O)(O)O)CC6)CSc6ccccc6)c(S(=O)(=O)C(F)(F)F)c5)cc4)CC3)c2)c(-c2ccc(Cl)cc2)n1C(C)C | > 10000 | > 10000 | > 10000 | > 10000 | > 10000 | – | – | 103 | 101 | 90.8 | 82.6 | – | 95.8 | 95.6 | 92.2 | 89.8 | 86.2 | 94.1 | 130 | 128 | viability, T/C (second compound 0.1 µM, first compound 3.16 µM): 91.5%; viability, T/C (second compound 0.1 µM, first compound 10 µM): 76.1%; viability, T/C [11]: 84.8%; viability, T/C [12]: 79.6%; viability, T/C (second compound 0.316 µM, first compound 3.16 µM): 83.6%; viability, T/C (second compound 0.316 µM, first compound 10 µM): 78.5%; viability, T/C [17]: 88%; viability, T/C [18]: 81.4%; viability, T/C (second compound 1 µM, first compound 3.16 µM): 78.4%; viability, T/C (second compound 1 µM, first compound 10 µM): 62.6%; viability, T/C [23]: 82.3%; viability, T/C [24]: 75.4%; viability, T/C (second compound 3.16 µM, first compound 3.16 µM): 73.4%; viability, T/C (second compound 3.16 µM, first compound 10 µM): 64.7%; viability, T/C [29]: 114%; viability, T/C [30]: 95.5%; viability, T/C (second compound 10 µM, first compound 3.16 µM): 94.1%; viability, T/C (second compound 10 µM, first compound 10 µM): 73.6% |
| O=C(c1ccc(F)c(F)c1Nc1ccc(I)cc1F)N1CC(O)([C@@H]2CCCCN2)C1 + Cc1c(S(C)(=O)=O)c(-c2cc(F)cc(N3CCN(c4ccc(NS(=O)(=O)c5ccc(NC(CCN6CCC(C(=O)OCCCP(=O)(O)O)CC6)CSc6ccccc6)c(S(=O)(=O)C(F)(F)F)c5)cc4)CC3)c2)c(-c2ccc(Cl)cc2)n1C(C)C | 150 | 82.6 | 78.5 | 59 | 75.7 | 104 | 102 | 71.8 | 54.8 | 41.9 | 17.6 | 93.7 | 66.7 | 42.1 | 74.5 | 38.3 | 68.1 | 31.6 | 78.8 | 41.1 | viability, T/C [8]: 97.3%; viability, T/C [11]: 32.2%; viability, T/C [12]: 9.34%; viability, T/C [13]: 90.7%; viability, T/C [14]: 95%; viability, T/C [17]: 26.9%; viability, T/C [18]: 4.46%; viability, T/C [19]: 81.2%; viability, T/C [20]: 90.4%; viability, T/C [23]: 18.6%; viability, T/C [24]: 1.8%; viability, T/C [25]: 115%; viability, T/C [26]: 112%; viability, T/C [29]: 12.6%; viability, T/C [30]: 2.47% |
